# Laboratory results reported in patent US8101658B2, “Nitric oxide donating prostamides” (Nicox S.A., priority 2008, dated 2012).
# Values joined by “and” are separate entries in the source; they are usually repeats but may differ in a detail not shown here. Equal values may be shown once. Marks after values point to notes of the source that are not given here.
# Columns and labels:
# [1] = system: ocular hypertensive non human primates; test: Intraocular pressure by pneumatonometry in ocular hypertensive primates; assay type: in vivo; details: ocular hypertensive primate, hypertensive eye, topical 2×25 μl drops in the evening, dose equimolar to 0.03% Bimatoprost; for ΔEmax (maximal IOP efficacy as compared to baseline): IOP at 12 and 18 h, n=8
# Method: (§1) Intraocular pressure was measured by pneumatonometry in ocular normotensive dogs (Beagle) and ocular hypertensive non human primates (for example, although dosing different here, see hypertensive primates described by Toris, C. B.; Zhan, G.-L.; Feilmeier, M. R.; Camras, C. B.; McLaughlin, M. A. J. Ocular Pharm. Ther. 2006, 22, 86-92). As described, only one eye is hypertensive in this primate model. Studies were performed in conscious animals (n=8/study) trained to accept pneumatonometry. The test compound and controls were formulated in a 10 mM citrate buffer vehicle at pH 5.5 with 0.5% Tween 80 and 0.02% benzalkonium chloride, and were administered in the evening. All test compounds were formulated at a dose equimolar to 0.03% Bimatoprost. Intraocular pressure was measured at −12 (baseline), 12 and 18 hours post treatment. Tetracaine hydrochloride (0.5%) was used to anesthetize the cornea when the intraocular pressure measurements were taken.
# (§2) In the primate model, the hypertensive eye received 2×25 μl volume drops of the test compound. After a washout period of one week, the ocular hypertensive eye was then dosed with Bimatoprost (2×25 μl volume drops) as a control. The contralateral, normotensive eye was not treated in the study. In the normotensive dog model, the test compound was administered topically to one eye in a 50 μl volume drop. The contralateral eye received a 50 μl volume drop of blank vehicle or Bimatoprost (in the case of the head-to-head study only) to serve as a control. Students paired t test was used to compare treatment with test compound vs vehicle or Bimatoprost control for significant differences.
# (§3) Tables 2 and 3 describe the intraocular pressure (IOP) changes that were seen following topical application of novel NO-prostamides in ocular hypertensive non-human primates and normotensive dogs. ΔEmax represents the maximal efficacy as compared to baseline (BL) values. ΔΔEmax reflects the difference in IOP from compound-treated eye over that seen for vehicle-treated eye at the timepoint wherein maximum IOP reduction for compound was seen. The percent change from vehicle control was the percentage change in IOP reduction conferred by compound over that for vehicle (set at 100%). Tmax represents the time point at which maximum IOP reduction of compound was observed.
# [2] = system: ocular normotensive dogs (Beagle); test: Intraocular pressure by pneumatonometry in ocular normotensive dogs; assay type: in vivo; details: normotensive dog; for ΔΔEmax (difference in IOP compound-treated eye over vehicle-treated eye at time of maximum reduction): topical 50 μl drop to one eye in the evening, contralateral eye vehicle, dose equimolar to 0.03% Bimatoprost, n=8; for % Change from vehicle control (IOP): topical 50 μl drop to one eye, contralateral eye vehicle (set at 100%)
# Method: as §1, §2, §3
smiles,measurement,setting,value
"CCNC(=O)CCC/C=C\C[C@@H]1[C@@H](/C=C/[C@@H](O)CCc2ccccc2)[C@H](O)C[C@@H]1O [Bimatoprost, reference compound]",% change from Baseline (IOP),[1],−13%
same,ΔEmax (maximal IOP efficacy as compared to baseline),[1],−4.8* mm Hg
same,ΔΔEmax (difference in IOP compound-treated eye over vehicle-treated eye at time of maximum reduction),[2],−4.0** mm H/g
same,% Change from vehicle control (IOP),[2],−16** %
"CCNC(=O)CCC/C=C\C[C@@H]1[C@@H](/C=C/[C@H](CCc2ccccc2)OC(=O)CCCO[N+](=O)[O-])[C@H](O)C[C@@H]1O [Example A-1, (1S,2E)-3-{(1R,2R,3S,5R)-2-[(2Z)-7-(Ethylamino)-7-oxohept-2-en-1-yl]-3,5-dihydroxycyclopentyl}-1-(2-phenylethyl)prop-2-en-1-yl 4-(Nitrooxy)butanoate]",ΔΔEmax (difference in IOP compound-treated eye over vehicle-treated eye at time of maximum reduction),[2],−3.6** mm H/g
same,% Change from vehicle control (IOP),[2],−20** %
"CCNC(=O)CCC/C=C\C[C@@H]1[C@@H](/C=C/[C@H](CCc2ccccc2)OC(=O)CCCCCO[N+](=O)[O-])[C@H](O)C[C@@H]1O [Example B-1, (1S,2E)-3-{(1R,2R,3S,5R)-2-[(2Z)-7-(Ethylamino)-7-oxohept-2-en-1-yl]-3,5-dihydroxycyclopentyl}-1-(2-phenylethyl)prop-2-en-1-yl 6-(Nitrooxy)hexanoate]",% change from Baseline (IOP),[1],−24** %
same,ΔEmax (maximal IOP efficacy as compared to baseline),[1],−7.7** mm Hg
same,% Change from vehicle control (IOP),[2],−28** % and −34** %
"CCNC(=O)CCC/C=C\C[C@@H]1[C@@H](/C=C/[C@H](CCc2ccccc2)OC(=O)CCOCCOCCOCCO[N+](=O)[O-])[C@H](O)C[C@@H]1O [Example C-1, (1S,2E)-3-{(1R,2R,3S,5R)-2-[(2Z)-7-(Ethylamino)-7-oxohept-2-en-1-yl]-3,5-dihydroxycyclopentyl}-1-(2-phenylethyl)prop-2-en-1-yl 3-(2-{2-[2-(Nitrooxy)ethoxy]ethoxy}ethoxy)propanoate]",ΔΔEmax (difference in IOP compound-treated eye over vehicle-treated eye at time of maximum reduction),[2],−3.6** mm H/g
same,% Change from vehicle control (IOP),[2],-18%
"CCNC(=O)CCC/C=C\C[C@@H]1[C@@H](/C=C/[C@@H](O)CCc2ccccc2)[C@H](OC(=O)CCCCCO[N+](=O)[O-])C[C@@H]1O [Example F-1, (1R,2R,3R,4S)-3-[(2Z)-7-(Ethylamino)-7-oxohept-2-en-1-yl]-4-hydroxy-2-[(1E,3S)-3-hydroxy-5-phenylpent-1-en-1-yl]cyclopentyl 6-(Nitrooxy)hexanoate]",ΔΔEmax (difference in IOP compound-treated eye over vehicle-treated eye at time of maximum reduction),[2],−4.9** mm H/g
same,% Change from vehicle control (IOP),[2],−25** %
"CCNC(=O)CCC/C=C\C[C@@H]1[C@@H](/C=C/[C@@H](O)CCc2ccccc2)[C@H](OC(=O)OCCCCO[N+](=O)[O-])C[C@@H]1O [Example G-1, (2R,3R)-3-[(2Z)-7-(Ethylamino)-7-oxohept-2-en-1-yl]-4-hydroxy-2-[(1E,3S)-3-hydroxy-5-phenylpent-1-en-1-yl]cyclopentyl 4-(Nitrooxy)butyl Carbonate]",ΔΔEmax (difference in IOP compound-treated eye over vehicle-treated eye at time of maximum reduction),[2],−3.8** mm H/g
same,% Change from vehicle control (IOP),[2],-20%
